Assay results from ChEMBL document CHEMBL3397038, “A coumarin lignanoid from the stems of Kadsura heteroclita” (2015).
Activity calls are given as the source filed them. No cut-off for these calls is given here.

Columns and labels:
Hepatitis B virus [1] = experiment: Antiviral activity against hepatitis B viral in human HepG2(2.2.15) cells assessed as decrease in surface antigen HBeAg secretion at 25 ug/ml after 7 days; assay type: functional; settings: HepG2 2.2.15, 168 h
Hepatitis B virus [2] = experiment: Antiviral activity against hepatitis B viral in human HepG2(2.2.15) cells assessed as decrease in surface antigen HBsAg secretion at 25 ug/ml after 7 days; assay type: functional; settings: HepG2 2.2.15, 168 h
Primary neuron = experiment: Neuroprotective activity against serum-deprivation-induced neurotoxicity in rat primary cerebellar granule neuronal cells assessed as cell viability at 10 uM by MTT assay relative to control; assay type: functional, cell-based
PC-12 = experiment: Neuroprotective activity against serum-deprivation-induced neurotoxicity in rat PC12 cells assessed as cell viability at 10 uM after 48 hrs by MTT assay relative to control; assay type: functional, cell-based
[3] = Antifibrotic activity in […] cells assessed as inhibition of acetaldehyde-stimulated cell growth at 50 uM/L; assay type: functional

SMILES | inhibition at 25 µg/mL (Hepatitis B virus [1]) [%] | inhibition at 25 µg/mL (Hepatitis B virus [2]) [%] | Activity (Primary neuron) | Activity (PC-12) | inhibition at 50 µM [3] [%]
O=c1oc2cc3c(cc2cc1[C@@H](CO)Cc1ccc2c(c1)OCO2)OCO3 | 48 | 57 | Active | Active | 71
Nc1ccn([C@@H]2CS[C@H](CO)O2)c(=O)n1 [LAMIVUDINE] | 46 | 10 | – | – | –
